In patent publication EP0500426A1, “2,6-Dimethyl-4-(4'-hydroxy-3',5'-di-t-butylphenyl)-1,4-dihydropyridine derivatives, process for their preparation and their use as free radical scavengers” (Instituto de Investigacion Y Desarrollo Quimico-Biologico …, priority 1991, dated 1992):
pIC50: −log10 of the molar value.

Columns and labels:
radicaux libres = test: Free radical scavenger activity (test not specified)
canaux calciques = conditions: see Spanish patent n°531.033; cited from earlier work
neutrophiles humains = test: Free radical production by FMLPA-stimulated human neutrophils (cytochrome C reduction); type: cell-based; conditions: Neutrophil, reduced cytochrome C at 550 nm, read-out: CI50 (the source's name)
Source text: (§1) Les composés de la présente invention ont fait l'objet d'un essai de contrôle de leur aptitude à capter les radicaux libres engendrés par la membrane hépatique du rat stimulée par du Fe++/acide ascorbique (système connu pour induire une formation de radicaux libres). Les composés les plus actifs ont fait ensuite l'objet d'essais de contrôle de leur aptitude à inhiber la formation des radicaux libres par les neutrophiles humains stimulés par la N-formyl-L-méthionyl-L-leucyl-L-phénylalanine et à protéger le tissu hépatique, entretenu en culture, contre les lésions par ischémie/reperfusion.
2.- Dosage des radicaux libres dans les polymorphonucléaires.
On a isolé des neutrophiles humains chez des donneurs volontaires bien portants par centrifugation sur gradient dans du Ficol Hypaque (Pharmacia). On a mélangé 100 µl de suspension de cellules (nombre final 500 000 cellules) avec 700 µl de solution physiologique tamponnée au phosphate et 50 µl des composés expérimentaux en solution dans du DMSO. On a utilisé comme témoin positif 25 µl d'une solution à 1 mg par ml de superoxyde dismutase dans du DMSO (à savoir 25 µg de SOD). On a préincubé les tubes à 37°C pendant 10 minutes sous agitation lente.
On a stimulé les neutrophiles par addition de 100 µl de cytochrome C type VI (1 mM) (Sigma) dans de la solution physiologique tamponnée au phosphate, de 50 µl de N-formyl-L-méthionyl-L-leucyl-L-phénylalanine (FMPLA) (10 µM) (Sigma F 3506) et par incubation pendant 5 minutes à 37°C. Après refroidissement à 0°C pour arrêter la réaction, on a centrifugé les tubes à 8000 xg et on a déterminé par spectrophotométrie à 550 nm le cytochrome C réduit, en utilisant des tubes contenant du SOD comme témoins.

[1] = system: membrane hépatique du rat; test: Free radical scavenging in rat liver membranes: lipid peroxidation induced by Fe++/ascorbic acid, thiobarbituric acid-reactive substances; type: biochemical; conditions: 45 minutes at 37°C, substances reacting with ATB, read-out: CI50 (the source's name)
Description: Les composés de la présente invention ont fait l'objet d'un essai de contrôle de leur aptitude à capter les radicaux libres engendrés par la membrane hépatique du rat stimulée par du Fe++/acide ascorbique (système connu pour induire une formation de radicaux libres).
1.- Activité de captage des radicaux libres dans la membrane hépatique du rat.
On a préparé des homogènats de foie de rat (1/10 p/v) dans du Ringer-Tris (50mM)-saccharose ([…]) de pH 7,4, après sacrifice de rats Wistar au moyen de CO2. On a découpé les foies en petits morceaux (1 à 2 mm) et on les a homogénéisés à 0°C dans un homogénéisateur Polytron. On a centrifugé les homogénats à 1000 x g pendant 10 minutes à 4°C et rejeté le culot. On a centrifugé le surnageant à 10 000 x g pendant 20 minutes et recueilli le culot, puis on l'a remis en suspension, dans le rapport 1/10, dans du Ringer-Tris (50 mM). On a utilisé des échantillons de la préparation immédiatement et on en a conservé à -20°C. […] Après 45 minutes à 37°C, on a ajouté 1 ml d'une solution contenant 0,5% d'acide thiobarbiturique (ATB) dans de l'acide trichloroacétique (ATC) à 20% dans chaque tube et après 15 minutes d'incubation à 95°C, on a déterminé par spectrophotométrie les substances réagissant avec l' A TB. On a réalisé pour toutes les expériences des témoins appropriés exempts du médicament.

tissu hépatique = test: Ischemia/reperfusion in short-term organ culture of rat liver, malonaldehyde by thiobarbituric acid reaction; type: cell-based, rats Wistar; conditions: 1 h, concentration inhibiting malonaldehyde production by 50%, 60 minutes ischemic anoxia, 60 minutes reoxygenation, read-out: CI50 (the source's name)
Source text: as §1
3.- Ischémie/reperfusion dans une culture d'organe à court terme.
Pour ces études, on a prélevé des échantillons de tissu dans des groupes de 10 rats Wistar mâles anesthésiés au pentobarbital sodique (60 mg par kg, i.p.). On a isolé les foies et on les a divisés en cinq échantillons d'environ 0,4 g qu'on a pesés et transférés dans des fioles d'Erlenmeyer de 50 ml bouchées contenant de la solution de Tris-Ringer saturée d'argon (anoxique).
On a purgé à l'argon les fioles d'Erlenmeyer de 50 ml contenant les échantillons du tissu et 3,9 ml de tampon de Tris-Ringer traité à l'argon, on les a rebouchées et on les a conservées au bain-marie à 37°C sans agitation pendant 50 minutes pour provoquer l'ischémie. La subdivision du tissu et l'agitation ont été évitées à ce stade pour réduire au minimum la diffusion des métabolites depuis le tissu jusque dans le milieu, qui n'aurait pu se faire au cours d'une ischémie in vivo.
Division du tissu et addition du médicament.
Après 50 minutes d'ischémie, on a divisé les tissus avec des ciseaux d'ophtalmologie en fragments d'environ 1 mm de côté. Du fait que l'argon est plus dense que l'air, son déplacement hors de la fiole et son remplacement par l'oxygène sont restés minimaux pendant le découpage et l'addition ultérieure du médicament. Ensuite, on a ajouté 0,1 ml de tampon de Tris-Ringer contenant l'un des composés à évaluer ou de l'hydroxy- toluène butylé (HTB), pour arriver à la concentration finale souhaitée; on a sélectionné l'hydroxytoluène butylé du fait que c'est un antioxydant classique qui gêne la propagation en chaîne des radicaux. On a procédé à ces additions avec rapidité pour éviter d'introduire de l'oxygène. On a rebouché les fioles et on les a secouées modérément pour mélanger le tissu avec le médicament, puis on les a remises au bain-marie pendant 10 minutes pour la mise a l'équilibre avant la réoxygénation.
Après 60 minutes d'anoxie ischémique, on a réoxygéné les fioles par barbotage vif d'oxygène gazeux à 100% dans les échantillons pendant 1 minute et par purge de la phase gazeuse avec de l'oxygène (de l'argon remplaçant l'oxygène à ce stade dans les expériences témoins d'ischémie sans réoxygénation). […]

Row | SMILES | pIC50 [1] | other results
1 | CCOC(=O)C1=C(C)NC(C)=C(C(=O)OC)C1c1cc(OC)c(O)c(OC)c1 (centres unmarked) | – | activité comme capteur de radicaux libres (radicaux libres): intéressante activité; activité de blocage des canaux calciques (canaux calciques): pratiquement exempt
2 | CCOC(=O)C1=C(C)NC(C)=C(C(=O)OC)C1c1cc(C(C)(C)C)c(O)c(C(C)(C)C)c1 (centres unmarked) [Exemple 1, 2,6-Diméthyl-4-(4'-hydroxy-3',5'-di-t-butylphényl)-1,4-dihydropyridine-3,5-dicarboxylatede méthyle et d'éthyle] | 6.11 | pIC50 (neutrophiles humains): 4.96; pIC50 (tissu hépatique): 6.77
3 | CCOC(=O)C1=C(C)NC(C)=C(C(=O)OC(C)C)C1c1cc(C(C)(C)C)c(O)c(C(C)(C)C)c1 (centres unmarked) [Exemple 2, 2,6-diméthyl-4-(4'-hydroxy-3',5'-di-t-butylphényl)-1,4-dihydropyridine-3,5-dicarboxylate d'éthyle et d'isopropyle] | 6.54 | pIC50 (neutrophiles humains): 4.99; pIC50 (tissu hépatique): 6.70
4 | COC(=O)C1=C(C)NC(C)=C(C(=O)OC)C1c1cc(C(C)(C)C)c(O)c(C(C)(C)C)c1 [Exemple 3, 2,6-Diméthyl-4-(4'-hydroxy-3',5'-di-t-butylphényl)-1,4-dihydropyridine-3,5-dicarboxylatede diméthyle] | 5.90 | –
5 | CCOC(=O)C1=C(C)NC(C)=C(C(=O)OCC2COC(C)(C)O2)C1c1cc(C(C)(C)C)c(O)c(C(C)(C)C)c1 (centres unmarked) [Exemple 4, 2,6-diméthyl-4-(4'-hydroxy-3',5'-di-t-butylphényl)-1,4-dihydropyridine-3,5-dicarboxylate d'éthyle etde (2,2-diméthyl-1,3-dioxolan-4-yl)méthyle] | 5.90 | –
6 | CCOC(=O)C1=C(C)NC(C)=C(C(=O)OCC(O)CO)C1c1cc(C(C)(C)C)c(O)c(C(C)(C)C)c1 (centres unmarked) [Exemple 5, 2,6-diméthyl-4-(4'-hydroxy-3',5'-di-t-butyl-phényl)-1,4-dihydropyridine-3,5-dicarboxylate d'éthyle etde 2,3-dihydroxypropyle] | 4.30 | –
7 | CCOC(=O)C1=C(C)NC(C)=C(C(=O)OCCN(C)Cc2ccccc2)C1c1cc(C(C)(C)C)c(O)c(C(C)(C)C)c1 (centres unmarked) [Exemple 6, chlorhydratede 2,6-diméthyl-4-(4'-hydroxy-3',5'-di-t-butylphényl)-1,4-dihydropyridine-3,5-dicarboxylate d'éthyle etde 2-(N-méthyl-N-benzylamino)éthyle] | 4.70 | –
8 | CCOC(=O)C1=C(C)NC(C)=C(C(=O)OCCNC)C1c1cc(C(C)(C)C)c(O)c(C(C)(C)C)c1 (centres unmarked) [Exemple 7, chlorhydratede 2,6-diméthyl-4-(4'-hydroxy-3',5'-di-t-butylphényl)-1,4-dihydropyridine-3,5-dicarboxylate d'éthyle etde 2-(méthylamino)éthyle] | 5.60 | –
9 | CCOC(=O)C1=C(C)NC(C)=C(C(=O)OCc2ccccc2)C1c1cc(C(C)(C)C)c(O)c(C(C)(C)C)c1 (centres unmarked) [Exemple 8, 2,6-diméthyl-4-(4'-hydroxy-3',5'-di-t-butylphényl)-1,4-dihydropyridine-3,5-dicarboxylate d'éthyle etde benzyle] | 6.00 | –
10 | CCOC(=O)C1=C(C)NC(C)=C(C(=O)O)C1c1cc(C(C)(C)C)c(O)c(C(C)(C)C)c1 (centres unmarked) [Exemple 9, 2,6-diméthyl-4-(4'-hydroxy-3',5'-di-t-butylphényl)-5-carbéthoxy-3-carboxy-1,4-dihydropyridine] | 5.60 | –
11 | CCOC(=O)C1=C(C)NC(C)=C(C(=O)OCC(C)C)C1c1cc(C(C)(C)C)c(O)c(C(C)(C)C)c1 (centres unmarked) [Exemple 10, 2,6-diméthyl-4-(4'-hydroxy-3',5'-di-t-butylphényl)-1,4-dihydropyridine-3,5-dicarboxylate d'éthyle et d'isobutyle] | 6.43 | pIC50 (neutrophiles humains): 4.98; pIC50 (tissu hépatique): 6.70
12 | CC1=C(C(=O)OCC(C)C)C(c2cc(C(C)(C)C)c(O)c(C(C)(C)C)c2)C(C(=O)OCC(C)C)=C(C)N1 [Exemple 11, 2,6-diméthyl-4-(4'-hydroxy-3',5'-di-t-butylphényl)-1,4-dihydropyridine-3,5-dicarboxylatede diisobutyle] | 6.00 | –
13 | Cc1cc(C(C)(C)C)c(O)c(C(C)(C)C)c1 [HTB, hydroxytoluène butylé, reference compound] | 5.82 | pIC50 (neutrophiles humains): 4.70; pIC50 (tissu hépatique): 5.76
14 | Cc1c(C)c2c(c(C)c1O)CCC(C)(CCCC(C)CCCC(C)CCCC(C)C)O2 (stereo not drawn) [α-Tocophérol, reference compound] | 4.82 | –
